Patent US9051544B2, “Method of enhancing cell growth using alkyl-amine-n-oxide (AANOx)” (BAXTER INTERNATIONAL INC., priority 2008, dated 2015)

Columns and labels:
[1] = test system: CHO cells expressing FVIII; type: cell-based, Chinese hamster
Protocol: In order to determine the effect of DDAO levels in cell growth, experiments were undertaken using CHO cells expressing FVIII with varying levels of DDAO equivalent to the contaminating amount in certain lots of commercial soy hydrolysate.
Cells from a bioreactor containing CHO cells in BAV serum free media, DMEM/HAM's F12 medium (11.76 g) supplemented with soya-peptone (4 g), ethanolamine (1.53 mg), L-glutamine (0.6 g), NaHCO3 (2.0 g) and SYNPERONIC (PLURONIC®) F68 (0.25 g) (see International Patent Publ. WO/2006/045438) were cultured with 4 g/L soy peptone in 60 mL Roux flasks. Roux flasks provide a static, unmoving environment for the cells to grow.

[2] = test system: Bacillus bacteria; conditions: Bacillus bacteria in culture; Brycki et al.; cited from earlier work
[3] = test system: CHO cells; assay: DDAO spiked into media at 0-50 ppm or equivalent ppb, in duplicate by serial dilution; cell growth and viability; type: cell-based, Chinese hamster
From the text: In separate experiments, DDAO was spiked into media at differing concentrations between 0-50 ppm or equivalent ppb in duplicate using serial dilution of high DDAO containing-media to reduce error (FIGS. 3 and 4).

Structure (SMILES): CCCCCCCCCCCC[N+](C)(C)[O-] [DDAO, dodecyldimethylamine oxide]
- DDAO level above which toxicity is shown ([1]; Chinese hamster): above 21.5 ppm
- DDAO level up to which there is a positive effect on cell growth ([1]; ppm equivalent in the soy hydrolysate, Roux flasks): up to 20 ppm
- DDAO level above which the process of denitrification is slowed [2]: above 75 parts per million
- DDAO level up to which there is a beneficial effect on cell growth ([3]; FIG. 3): 5-10 ppb
- DDAO level up to which there is a beneficial effect on cell growth ([3]; FIG. 4, duplicate samples): 6-10 ppm
